According to patent US10517889B2, “Modulators of SMAD7 expression” (Ionis Pharmaceuticals, Inc., priority 2017, dated 2019):

How the values were obtained:
human SMAD7 mRNA = test: Antisense inhibition of human SMAD7 mRNA expression in Hep3B cells by 3-10-3 cEt gapmers, 10,000 nM, electroporation (Example 2); format: cell-based; settings: approximately 24 hours
How it was run: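 Percent inhibition of SMAD7 mRNA, relative to untreated cells, after ~24 h exposure of electroporated Hep3B cells to 10,000 nM cEt gapmer; levels by qRT-PCR, corrected for total RNA.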

[1] = Hematology assays after subcutaneous administration in CD-1 mice (Example 6); format: in vivo; parameters: RBC / Eosinophils / Monocytes: unit not given here; settings: 50 mg/kg subcutaneous twice weekly for 7 weeks
Experimental: (§1) Groups of 8-9 week old male CD-1 mice were injected subcutaneously twice a week for 7 weeks with 50 mg/kg of Ionis oligonucleotides (100 mg/kg/week dose). Each group contained 4 mice. One group of male CD-1 mice was injected subcutaneously twice a week for 7 weeks with PBS. Plasma was collected for analysis on day 28.
Blood obtained from all mouse groups was measured by an ADVIA2120i hematology analyzer (Siemens, USA) for measurements of the various blood cells, as well as other hematology markers.

[2] = Oligonucleotide concentration in liver and colon by LC-MS/MS after subcutaneous administration in CD-1 mice (Example 6); format: in vivo; settings: 50 mg/kg subcutaneously twice a week for 7 weeks, 48 hours after the last dose
Experimental: as §1
Oligonucleotide concentrations in the liver and colon were analyzed using LC-MS/MS method.

mouse Smad7 mRNA = test: Pharmacology: mouse Smad7 mRNA expression in liver, kidney, duodenum, ileum and colon after subcutaneous administration in CD-1 mice (Example 6); format: in vivo; settings: 50 mg/kg subcutaneous twice weekly for 7 weeks, normalized to GAPDH
Experimental: as §1
The pharmacological activity of the Ionis oligonucleotides in mice was assessed by measuring mouse Smad7 mRNA expression in liver, kidney, duodenum, ileum, and colon at necropsy.
Tissue samples from all mice were analyzed for Smad7 mRNA expression using the primer probe set HTS7555 (forward sequence […], designated SEQ ID NO: 2737; reverse sequence […], designated SEQ ID NO: 2738; probe sequence […], designated SEQ ID NO: 2739), which was normalized to mRNA levels of the housekeeping gene, GAPDH. One-way ANOVA with Dunnet's comparison test was used for statistical analysis.

[3] = Blood chemistry markers after oral gavage in CD-1 mice (Example 7); format: in vivo; settings: 500 mg/kg oral gavage once daily for 4 weeks, day 30
Experimental: The objective of this study was to evaluate the tolerability and pharmacodynamics of select Ionis human SMAD7 antisense oligonucleotides in CD-1 mice following 4 weeks of treatment. The mice were administered oligonucleotides by oral gavage.
(§2) Groups of 7-8 week old male CD-1 mice were given an oral gavage dose once daily for 4 weeks of 500 mg/kg of Ionis SMAD7 oligonucleotides. Each group contained 8 mice. One group of male CD-1 mice was administered saline by oral gavage daily.
Levels of transaminases, albumin, and BUN were measured using a Toshiba 200FR NEO chemistry analyzer (Toshiba Co., Japan).

[4] = Oligonucleotide concentrations in tissues by LC-MS/MS after oral gavage in CD-1 mice (Example 7); format: in vivo; settings: 500 mg/kg oral gavage once daily for 4 weeks, 48 hours after last dose
Experimental: as §2
Oligonucleotide concentrations were detected in various tissues by LC-MS/MS analysis. The greatest concentration was found in the kidney, followed by the colon.

[5] = Oligonucleotide concentration in tissues by LC-MS/MS after subcutaneous administration in beagle dogs (Example 8); format: in vivo; settings: 30 mg/kg subcutaneous, 48 hours after the last dose
Experimental: There were 4 animals per group.
Oligonucleotide concentrations of both ION 830025 and ION 798781 were detected in various tissues by LC-MS/MS analysis. The results are presented below, expressed as μg/g tissue. The data was collected 48 hours after the last dose.

[6] = Hep3B cells, electroporation with 10,000 nM antisense oligonucleotide, SMAD7 mRNA by RT-PCR (RTS5062), relative to untreated control cells

Substance: 798781 (CGTAAGATTCACAGCA; 3-10-3 cEt gapmer, further chemistry not given here) [compound 798781]
- % Inhibition (human SMAD7 mRNA; [6]): 52%
- % Inhibition (human SMAD7 mRNA; SMAD7 mRNA, Hep3B cells, 10,000 nM antisense oligonucleotide, electroporation, primer probe set RTS5062, relative to untreated control cells): 69%
- Eosinophils [1]: 2.4
- Hematocrit [1]: 42.3%
- Hemoglobin [1]: 13.8 g/dL
- Lymphocytes [1]: 73.7%
- MCH [1]: 14.9 pg
- MCHC [1]: 32.6 g/dL
- MCV [1]: 45.8 fL
- Monocytes [1]: 5.2
- Neutrophils [1]: 18.8%
- RBC [1]: 9.3
- Reticulocytes [1]: 3.3%
- WBC [1]: 4.9 10^3/μL
- platelets [1]: 867.3 10^3/μL
- Oligonucleotide concentration, Colon [2]: 63 μg/g tissue
- Oligonucleotide concentration, Liver [2]: 312 μg/g tissue
- % inhibition of Smad7 mRNA expression (compared to control), Kidney (mouse Smad7 mRNA): 18%
- % inhibition of Smad7 mRNA expression (compared to control), Liver (mouse Smad7 mRNA): 28%
- ALT [3]: 43 IU/L
- AST [3]: 73 IU/L
- Albumin [3]: 3.2 g/dL
- BUN [3]: 25 mg/dL
- Bilirubin [3]: 0.3 mg/dL
- Oligonucleotide concentration, Colon [4]: 4.4 µg/g
- Oligonucleotide concentration, Duodenum [4]: 0.7 µg/g
- Oligonucleotide concentration, Ileum [4]: 2.9 µg/g
- Oligonucleotide concentration, Kidney [4]: 45.2 µg/g
- Oligonucleotide concentration, Liver [4]: 2.9 µg/g
- Full length oligonucleotide, Distal colon [5]: 68 µg/g
- Full length oligonucleotide, Duodenum [5]: 97 µg/g
- Full length oligonucleotide, Ileum [5]: 177 µg/g
- Full length oligonucleotide, Kidney [5]: 3300 µg/g
- Full length oligonucleotide, Liver [5]: 964 µg/g
- Full length oligonucleotide, Proximal colon [5]: 73 µg/g

Substance: 830025 (antisense TTTGTAAATCGAAAGC; 3-10-3 cEt gapmer, further chemistry not given here) [compound 830025]
- % Inhibition (human SMAD7 mRNA; [6]): 62%
- Eosinophils [1]: 3.8
- Hematocrit [1]: 38.7%
- Hemoglobin [1]: 12.5 g/dL
- Lymphocytes [1]: 83.2%
- MCH [1]: 15.7 pg
- MCHC [1]: 32.3 g/dL
- MCV [1]: 48.8 fL
- Monocytes [1]: 3.2
- Neutrophils [1]: 9.3%
- RBC [1]: 8.0
- Reticulocytes [1]: 3.3%
- WBC [1]: 4.8 10^3/μL
- platelets [1]: 805.0 10^3/μL
- Basophils ([1]; n.d. = below detection levels): 0.6 10^3/μL
- Oligonucleotide concentration, Colon [2]: 39 μg/g tissue
- Oligonucleotide concentration, Liver [2]: 77 μg/g tissue
- % inhibition of Smad7 mRNA expression (compared to control), Kidney (mouse Smad7 mRNA): 45%
- % inhibition of Smad7 mRNA expression (compared to control), Liver (mouse Smad7 mRNA): 60%
- ALT [3]: 34 IU/L
- AST [3]: 65 IU/L
- Albumin [3]: 3.3 g/dL
- BUN [3]: 21 mg/dL
- Bilirubin [3]: 0.2 mg/dL
- Oligonucleotide concentration, Colon [4]: 3.6 µg/g
- Oligonucleotide concentration, Duodenum [4]: 0.7 µg/g
- Oligonucleotide concentration, Ileum [4]: 1.9 µg/g
- Oligonucleotide concentration, Kidney [4]: 21.5 µg/g
- Oligonucleotide concentration, Liver [4]: 2.3 µg/g
- Full length oligonucleotide, Distal colon [5]: 49 µg/g
- Full length oligonucleotide, Duodenum [5]: 97 µg/g
- Full length oligonucleotide, Ileum [5]: 41 µg/g
- Full length oligonucleotide, Kidney [5]: 1470 µg/g
- Full length oligonucleotide, Liver [5]: 466 µg/g
- Full length oligonucleotide, Proximal colon [5]: 31 µg/g

Substance: 830037 (antisense CTATTGGCTGATCTGG; 3-10-3 cEt gapmer, further chemistry not given here) [compound 830037]
- % Inhibition (human SMAD7 mRNA; [6]): 67%
- Oligonucleotide concentration, Colon [2]: 24 μg/g tissue
- Oligonucleotide concentration, Liver [2]: 97 μg/g tissue
- % inhibition of Smad7 mRNA expression (compared to control), Kidney (mouse Smad7 mRNA): 7%
- % inhibition of Smad7 mRNA expression (compared to control), Liver (mouse Smad7 mRNA): 24%
- ALT [3]: 62 IU/L
- AST [3]: 94 IU/L
- Albumin [3]: 3.3 g/dL
- BUN [3]: 26 mg/dL
- Bilirubin [3]: 0.3 mg/dL
- Oligonucleotide concentration, Colon [4]: 4.8 µg/g
- Oligonucleotide concentration, Duodenum [4]: 1.2 µg/g
- Oligonucleotide concentration, Ileum [4]: 2.7 µg/g
- Oligonucleotide concentration, Kidney [4]: 32.4 µg/g
- Oligonucleotide concentration, Liver [4]: 3.9 µg/g
- Full length oligonucleotide, Distal colon [5]: 46 µg/g
- Full length oligonucleotide, Duodenum [5]: 55 µg/g
- Full length oligonucleotide, Ileum [5]: 67 µg/g
- Full length oligonucleotide, Kidney [5]: 894 µg/g
- Full length oligonucleotide, Liver [5]: 521 µg/g
- Full length oligonucleotide, Proximal colon [5]: 86 µg/g
